# PubChem BioAssay (NCI)
#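 Abbreviation: GI50, concentration required for 50% inhibition of growth. TGI is the concentration that stops growth completely.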
# Key:
# Assay in all cases: inhibition of tumour cell growth, NCI panel, 384-well format
# UACC-62 melanoma = tested on: UACC-62 melanoma
# NCI-H522 lung = tested on: NCI-H522 lung
# RXF 393 renal = tested on: RXF 393 renal
# HOP-62 NSCLC = tested on: HOP-62 NSCLC
# RPMI-8226 leukemia = tested on: RPMI-8226 leukemia
# SK-MEL-5 melanoma = tested on: SK-MEL-5 melanoma
# HCC-2998 colon = tested on: HCC-2998 colon
# OVCAR-8 ovarian = tested on: OVCAR-8 ovarian
# HCT-15 colon = tested on: HCT-15 colon
# M14 melanoma = tested on: M14 melanoma
# A498 renal = tested on: A498 renal
# MDA-MB-231 breast = tested on: MDA-MB-231 breast
# KM12 colon = tested on: KM12 colon
# T-47D breast = tested on: T-47D breast
# EKVX NSCLC = tested on: EKVX NSCLC
# SF-539 CNS = tested on: SF-539 CNS
# MDA-MB-468 breast = tested on: MDA-MB-468 breast
# SN12C renal = tested on: SN12C renal
# LOX IMVI melanoma = tested on: LOX IMVI melanoma
# SW-620 colon = tested on: SW-620 colon
# NCI-H460 NSCLC = tested on: NCI-H460 NSCLC
# SR leukemia = tested on: SR leukemia
# UO-31 renal = tested on: UO-31 renal
# BT-549 breast = tested on: BT-549 breast
# U251 glioblastoma = tested on: U251 glioblastoma
# ACHN renal = tested on: ACHN renal
# IGROV1 ovarian = tested on: IGROV1 ovarian
# 786-0 renal = tested on: 786-0 renal
# A549 NSCLC = tested on: A549 NSCLC
# NCI-H226 lung = tested on: NCI-H226 lung
# SNB-19 CNS = tested on: SNB-19 CNS
# OVCAR-5 ovarian = tested on: OVCAR-5 ovarian
# SNB-75 CNS = tested on: SNB-75 CNS
# NCI-H322M lung = tested on: NCI-H322M lung
# HT29 colon = tested on: HT29 colon
# CAKI-1 renal = tested on: CAKI-1 renal
# OVCAR-4 ovarian = tested on: OVCAR-4 ovarian
# SK-OV-3 ovarian = tested on: SK-OV-3 ovarian
# TK-10 renal = tested on: TK-10 renal
# MOLT-4 leukemia = tested on: MOLT-4 leukemia
# SF-268 CNS = tested on: SF-268 CNS
# MCF7 breast = tested on: MCF7 breast
# UACC-257 melanoma = tested on: UACC-257 melanoma
# NCI/ADR-RES ovarian = tested on: NCI/ADR-RES ovarian
# HOP-92 NSCLC = tested on: HOP-92 NSCLC
# HCT-116 colon = tested on: HCT-116 colon
# PC-3 prostate = tested on: PC-3 prostate
# MDA-MB-435 melanoma = tested on: MDA-MB-435 melanoma
# COLO 205 colon = tested on: COLO 205 colon
# OVCAR-3 ovarian = tested on: OVCAR-3 ovarian
# HS 578T breast = tested on: HS 578T breast
# CCRF-CEM leukemia = tested on: CCRF-CEM leukemia
# NCI-H23 lung = tested on: NCI-H23 lung
# DU-145 prostate = tested on: DU-145 prostate
# HL-60(TB) leukemia = tested on: HL-60(TB) leukemia
# SK-MEL-28 melanoma = tested on: SK-MEL-28 melanoma
# SF-295 CNS = tested on: SF-295 CNS
# MALME-3M melanoma = tested on: MALME-3M melanoma
structure (smiles),measurement,setting,value
CN1CCN(c2ccc(Nc3ncc4cc5n(c4n3)C3(CCCCC3)CNC5=O)nc2)CC1,GI50,UACC-62 melanoma,1.69 µM
same,TGI,UACC-62 melanoma,7.78 µM
same,GI50,NCI-H522 lung,7.65 µM
same,TGI,NCI-H522 lung,18.9 µM
same,GI50,RXF 393 renal,2.15 µM
same,TGI,RXF 393 renal,4.02 µM
same,GI50,HOP-62 NSCLC,1.99 µM
same,TGI,HOP-62 NSCLC,6.75 µM
same,GI50,RPMI-8226 leukemia,0.245 µM
same,TGI,RPMI-8226 leukemia,1.5 µM
same,GI50,SK-MEL-5 melanoma,2.39 µM
same,TGI,SK-MEL-5 melanoma,12.7 µM
same,GI50,HCC-2998 colon,2.35 µM
same,TGI,HCC-2998 colon,5.48 µM
same,GI50,OVCAR-8 ovarian,3.57 µM
same,TGI,OVCAR-8 ovarian,10.5 µM
same,GI50,HCT-15 colon,2.14 µM
same,TGI,HCT-15 colon,9.25 µM
same,GI50,M14 melanoma,1.48 µM
same,TGI,M14 melanoma,4.85 µM
same,GI50,A498 renal,3.03 µM
same,TGI,A498 renal,14.5 µM
same,GI50,MDA-MB-231 breast,0.796 µM
same,TGI,MDA-MB-231 breast,3.23 µM
same,GI50,KM12 colon,1.34 µM
same,TGI,KM12 colon,14.3 µM
same,GI50,T-47D breast,7.74 µM
same,TGI,T-47D breast,23.3 µM
same,GI50,EKVX NSCLC,3.11 µM
same,TGI,EKVX NSCLC,11 µM
same,GI50,SF-539 CNS,1.75 µM
same,TGI,SF-539 CNS,3.44 µM
same,GI50,MDA-MB-468 breast,4.26 µM
same,TGI,MDA-MB-468 breast,10.8 µM
same,GI50,SN12C renal,1.83 µM
same,TGI,SN12C renal,7.87 µM
same,GI50,LOX IMVI melanoma,0.993 µM
same,TGI,LOX IMVI melanoma,3.02 µM
same,GI50,SW-620 colon,1.09 µM
same,TGI,SW-620 colon,10.2 µM
same,GI50,NCI-H460 NSCLC,1.33 µM
same,TGI,NCI-H460 NSCLC,3.74 µM
same,GI50,SR leukemia,0.0408 µM
same,TGI,SR leukemia,0.196 µM
same,GI50,UO-31 renal,1.36 µM
same,TGI,UO-31 renal,> 23.3 µM
same,GI50,BT-549 breast,2 µM
same,TGI,BT-549 breast,3.9 µM
same,GI50,U251 glioblastoma,3.14 µM
same,TGI,U251 glioblastoma,15.2 µM
same,GI50,ACHN renal,1.63 µM
same,TGI,ACHN renal,> 100 µM
same,GI50,IGROV1 ovarian,4.12 µM
same,TGI,IGROV1 ovarian,> 100 µM
same,GI50,786-0 renal,2.34 µM
same,TGI,786-0 renal,> 100 µM
same,GI50,A549 NSCLC,1.65 µM
same,TGI,A549 NSCLC,9.44 µM
same,GI50,NCI-H226 lung,0.362 µM
same,TGI,NCI-H226 lung,4.23 µM
same,GI50,SNB-19 CNS,3.99 µM
same,TGI,SNB-19 CNS,> 52.6 µM
same,GI50,OVCAR-5 ovarian,2.04 µM
same,TGI,OVCAR-5 ovarian,> 100 µM
same,GI50,SNB-75 CNS,1.89 µM
same,TGI,SNB-75 CNS,4.35 µM
same,GI50,NCI-H322M lung,2.17 µM
same,TGI,NCI-H322M lung,7.5 µM
same,GI50,HT29 colon,1.46 µM
same,TGI,HT29 colon,12.1 µM
same,GI50,CAKI-1 renal,1.21 µM
same,TGI,CAKI-1 renal,> 40.5 µM
same,GI50,OVCAR-4 ovarian,5.31 µM
same,TGI,OVCAR-4 ovarian,14.6 µM
same,GI50,SK-OV-3 ovarian,5.23 µM
same,TGI,SK-OV-3 ovarian,> 42.6 µM
same,GI50,TK-10 renal,2.94 µM
same,TGI,TK-10 renal,15.3 µM
same,GI50,MOLT-4 leukemia,0.116 µM
same,TGI,MOLT-4 leukemia,0.931 µM
same,GI50,SF-268 CNS,1.81 µM
same,TGI,SF-268 CNS,4.14 µM
same,GI50,MCF7 breast,1.39 µM
same,TGI,MCF7 breast,9.19 µM
same,GI50,UACC-257 melanoma,5.59 µM
same,TGI,UACC-257 melanoma,17.4 µM
same,GI50,NCI/ADR-RES ovarian,8.49 µM
same,TGI,NCI/ADR-RES ovarian,23.8 µM
same,GI50,HOP-92 NSCLC,2.28 µM
same,TGI,HOP-92 NSCLC,> 24.2 µM
same,GI50,HCT-116 colon,1.41 µM
same,TGI,HCT-116 colon,5.38 µM
same,GI50,PC-3 prostate,2.71 µM
same,TGI,PC-3 prostate,> 39 µM
same,GI50,MDA-MB-435 melanoma,4.34 µM
same,TGI,MDA-MB-435 melanoma,24.8 µM
same,GI50,COLO 205 colon,0.844 µM
same,TGI,COLO 205 colon,5.67 µM
same,GI50,OVCAR-3 ovarian,3.05 µM
same,TGI,OVCAR-3 ovarian,7.81 µM
same,GI50,HS 578T breast,2.09 µM
same,TGI,HS 578T breast,4.09 µM
same,GI50,CCRF-CEM leukemia,0.399 µM
same,TGI,CCRF-CEM leukemia,1.81 µM
same,GI50,NCI-H23 lung,1.81 µM
same,TGI,NCI-H23 lung,3.83 µM
same,GI50,DU-145 prostate,3.22 µM
same,TGI,DU-145 prostate,9.41 µM
same,GI50,HL-60(TB) leukemia,0.139 µM
same,TGI,HL-60(TB) leukemia,1.77 µM
same,GI50,SK-MEL-28 melanoma,2.47 µM
same,TGI,SK-MEL-28 melanoma,14.5 µM
same,GI50,SF-295 CNS,1.75 µM
same,TGI,SF-295 CNS,7.59 µM
same,GI50,MALME-3M melanoma,1.45 µM
same,TGI,MALME-3M melanoma,4.22 µM
